Source: patent US20180002288A1, “USE OF PICOLINAMIDES AS FUNGICIDES” (DOW AGROSCIENCES LLC, priority 2014, published 2018)
Read-outs that look alike come from different tables or passages of the source.

How the values were obtained:
Phakopsora pachyrhizi = experiment: Asian Soybean Rust fungicidal activity (PHAKPA); details: Phakopsora pachyrhizi, in Glycine max
Zymoseptoria tritici = experiment: Leaf Blotch of Wheat fungicidal activity (SEPTTR); format: in vivo; details: for pest or weed control at 121.5 g/ha: Low Volume Cereal Activity at 121.5 g/Ha; for pest or weed control at 100 ppm: wheat, high volume
Puccinia triticina = experiment: Wheat Brown Rust fungicidal activity (PUCCRT); format: in vivo; details: for pest or weed control at 121.5 g/ha: Low Volume Cereal Activity at 121.5 g/Ha; for pest or weed control at 100 ppm: wheat, high volume
[1] = 24 h, read-out: PHAKPA 1DP % Control rating, soybean, high volume, 25 ppm, 1 Day Protectant
[2] = 72 h, read-out: PHAKPA 3DC % Control rating, soybean, high volume, 25 ppm, 3 Day Curative
[3] = 24 h, 1 Day Protectant, read-out: SEPTTR 1DP (Wheat Leaf Blotch, 1 Day Protectant)
[4] = 72 h, 3 Day Curative, read-out: SEPTTR 3DC (Wheat Leaf Blotch, 3 Day Curative)
[5] = 24 h, 1 Day Protectant, read-out: PUCCRT 1DP (Wheat Brown Rust, 1 Day Protectant)
[6] = 72 h, 3 Day Curative, read-out: PUCCRT 3DC (Wheat Brown Rust, 3 Day Curative)
[7] = 24 h, 1 Day Protectant, read-out: SEPTTR 1DP % Control rating
[8] = 72 h, 3 Day Curative, read-out: SEPTTR 3DC % Control rating
[9] = 24 h, 1 Day Protectant, read-out: PUCCRT 1DP % Control rating
[10] = 72 h, 3 Day Curative, read-out: PUCCRT 3DC % Control rating

| Compound | pest or weed control at 25 ppm (Phakopsora pachyrhizi; [1]) [%] | pest or weed control at 25 ppm (Phakopsora pachyrhizi; [2]) [%] | pest or weed control at 121.5 g/ha (Zymoseptoria tritici; [3]) [%] | pest or weed control at 121.5 g/ha (Zymoseptoria tritici; [4]) [%] | pest or weed control at 121.5 g/ha (Puccinia triticina; [5]) [%] | pest or weed control at 121.5 g/ha (Puccinia triticina; [6]) [%] | pest or weed control at 100 ppm (Zymoseptoria tritici; [7]) [%] | pest or weed control at 100 ppm (Zymoseptoria tritici; [8]) [%] | pest or weed control at 100 ppm (Puccinia triticina; [9]) [%] | pest or weed control at 100 ppm (Puccinia triticina; [10]) [%] |
| --- | --- | --- | --- | --- | --- | --- | --- | --- | --- | --- |
| COc1ccnc(C(=O)N[C@@H](C)C(=O)O[C@@H](C)[C@H](Oc2cccc(F)c2)c2ccccc2)c1OC(C)=O [Example 188] | > 80 | < 80 | > 80 | > 80 | > 80 | > 80 | – | – | – | – |
| COc1cc(F)ccc1[C@@H](OC1CC1)[C@H](C)OC(=O)[C@H](C)NC(=O)c1nccc(OC)c1OC(C)=O [Example 299] | > 80 | < 80 | > 80 | > 80 | > 80 | < 80 | – | – | – | – |
| COc1ccnc(C(=O)N[C@@H](C)C(=O)O[C@@H](C)[C@H](OCC(C)C)c2ccccc2)c1OC(C)=O [Example 225] | > 80 | < 80 | < 80 | > 80 | > 80 | > 80 | – | – | – | – |
| COc1ccnc(C(=O)N[C@@H](C)C(=O)O[C@@H](C)[C@H](Oc2ccc(C)cc2)c2ccc(F)cc2)c1OC(C)=O [Example 247] | – | – | > 80 | > 80 | > 80 | > 80 | – | – | – | – |
| COc1ccnc(C(=O)N[C@@H](C)C(=O)O[C@@H](C)[C@H](Oc2cccc(Cl)c2)c2ccccc2)c1OC(C)=O [Example 203] | – | – | > 80 | > 80 | > 80 | < 80 | – | – | – | – |
| COc1ccnc(C(=O)N[C@@H](C)C(=O)O[C@@H](C)[C@@H](OC)c2ccccc2)c1O [Example 140] | – | – | – | – | – | – | < 0 | < 80 | < 80 | > 80 |
| COc1ccnc(C(=O)N[C@@H](C)C(=O)O[C@@H](C)[C@H](Oc2ccc(C(F)(F)F)cc2)c2ccccc2)c1O [Example 125] | – | – | – | – | – | – | < 80 | < 80 | < 80 | < 0 |
| COc1ccnc(C(=O)N[C@@H](C)C(=O)O[C@@H](C)[C@H](Oc2ccccc2)c2ccc(F)cc2Cl)c1O [Example 163] | – | – | – | – | – | – | > 80 | > 80 | > 80 | > 80 |
| COc1ccnc(C(=O)N[C@@H](C)C(=O)O[C@@H](C)[C@H](Oc2ccccc2)c2ccc3ccccc3c2)c1O [Example 166] | – | – | – | – | – | – | > 80 | > 80 | > 80 | > 80 |
| COc1ccnc(C(=O)N[C@H](C(=O)O[C@@H](C)[C@H](Oc2ccc(C(F)(F)F)cc2)c2ccccc2)C(C)C)c1OC(C)=O [Example 198] | – | – | > 80 | < 0 | > 80 | < 80 | – | – | – | – |
| COc1ccnc(C(=O)N[C@@H](C)C(=O)O[C@H](C)[C@@H](Oc2ccccc2)c2ccccc2)c1O [Example 115] | – | – | – | – | – | – | < 0 | < 80 | < 0 | > 80 |
| COc1ccnc(C(=O)N[C@@H](C)C(=O)O[C@@H](C)[C@@H](Oc2ccccc2)c2cccnc2)c1OC(C)=O [Example 211] | – | – | < 0 | < 80 | < 0 | < 80 | – | – | – | – |
| COc1ccnc(C(=O)N[C@@H](C)C(=O)O[C@@H](C)[C@H](Oc2ccccc2)c2ccc(F)cc2C)c1O [Example 162] | – | – | – | – | – | – | > 80 | > 80 | > 80 | > 80 |
| COc1ccnc(C(=O)N[C@@H](C)C(=O)O[C@@H](C)[C@H](Oc2cc(F)ccc2F)c2ccccc2)c1OC(C)=O [Example 192] | – | – | > 80 | < 80 | > 80 | > 80 | – | – | – | – |
